Where two headings read alike, the source gives them in different places.
How the values were obtained:
[1] = target: T1, μ receptor (Cavia porcellus, UniProt A0ACM8Q262); test: μ receptor radioligand binding assay with [3H]DAMGO, guinea pig brain membranes
[2] = target: human serum albumin (Homo sapiens, UniProt P02768); test: in vitro; conditions: plasma
[3] = target: κ receptor (Cavia porcellus, UniProt P41144); test: κ receptor radioligand binding assay with [3H]U-69,593, guinea pig brain membranes
κ receptor, sequence (P41144 whole entry): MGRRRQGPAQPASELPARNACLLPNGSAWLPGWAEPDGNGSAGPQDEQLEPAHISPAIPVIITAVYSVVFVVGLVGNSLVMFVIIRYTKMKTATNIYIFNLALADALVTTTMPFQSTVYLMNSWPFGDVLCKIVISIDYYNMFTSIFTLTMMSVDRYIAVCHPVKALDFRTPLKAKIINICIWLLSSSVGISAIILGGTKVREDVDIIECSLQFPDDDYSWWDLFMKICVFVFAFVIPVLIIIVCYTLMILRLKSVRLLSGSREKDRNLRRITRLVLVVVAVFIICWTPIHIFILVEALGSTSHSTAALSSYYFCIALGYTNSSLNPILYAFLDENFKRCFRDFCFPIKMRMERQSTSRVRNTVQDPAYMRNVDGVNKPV

[4] = target: T2, σ2 receptor (Rattus norvegicus, UniProt Q5U3Y7); test: biochemical; conditions: read-out: inhibition of the radioligand binding, σ2 Receptor
T2 construct: The thawed rat liver membrane preparation; tissue Harlan-Winkelmann, Borchen, Germany; host or cells: rat liver membrane homogenate
T2 sequence (Q5U3Y7 1-176): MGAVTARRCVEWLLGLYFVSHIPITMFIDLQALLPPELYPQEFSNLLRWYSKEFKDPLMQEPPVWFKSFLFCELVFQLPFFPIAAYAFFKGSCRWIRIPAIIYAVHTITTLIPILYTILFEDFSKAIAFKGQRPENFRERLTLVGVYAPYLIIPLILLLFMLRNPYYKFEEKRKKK

[5] = target: T3, δ receptor (Rattus norvegicus, UniProt P33533); test: δ receptor radioligand binding assay with [3H]DPDPE, rat brain membranes; conditions: read-out: inhibition of the radioligand binding, δ Receptor
T3 construct: The thawed rat brain membrane preparation (about 75 μg of the protein) was incubated; tissue Harlan-Winkelmann, Borchen, Germany; host or cells: rat brain membrane homogenate
T3 sequence (P33533 whole entry): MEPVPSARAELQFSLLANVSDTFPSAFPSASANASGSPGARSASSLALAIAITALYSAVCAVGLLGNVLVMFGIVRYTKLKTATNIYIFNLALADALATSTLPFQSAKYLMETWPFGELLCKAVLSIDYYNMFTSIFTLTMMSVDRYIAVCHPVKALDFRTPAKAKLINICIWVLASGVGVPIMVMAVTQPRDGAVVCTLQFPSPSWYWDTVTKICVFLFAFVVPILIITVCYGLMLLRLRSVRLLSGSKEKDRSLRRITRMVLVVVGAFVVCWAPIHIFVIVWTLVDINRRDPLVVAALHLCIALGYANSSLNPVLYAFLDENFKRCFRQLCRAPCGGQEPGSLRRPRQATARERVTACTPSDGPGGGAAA

[6] = mouse, microsomes, 1.5 h
[7] = target: T4, σ1 receptor (Cavia porcellus, UniProt Q60492); test: σ1 receptor radioligand binding assay with [3H]-(+)-pentazocine, guinea pig brain membranes; conditions: read-out: Ki ± SEM σ1 Receptor
T4 sequence (Q60492 whole entry): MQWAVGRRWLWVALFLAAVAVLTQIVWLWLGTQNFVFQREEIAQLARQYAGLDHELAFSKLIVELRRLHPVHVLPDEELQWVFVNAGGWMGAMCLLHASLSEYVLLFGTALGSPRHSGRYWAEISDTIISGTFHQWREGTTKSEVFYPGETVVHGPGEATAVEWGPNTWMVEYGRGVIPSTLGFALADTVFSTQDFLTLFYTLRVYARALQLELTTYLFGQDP

[8] = physchem; conditions: pH 7.4
[9] = target: T4, σ1 receptor; conditions: [3H]-(+)-pentazocine, guinea pig brain membranes; cited from earlier work
[10] = target: T2, σ2 receptor; conditions: read-out: Ki σ2 Receptor; [3H]DTG, rat liver membranes; cited from earlier work
[11] = target: T1, μ receptor; design: method as in PMID 25062506; conditions: [3H]DAMGO, guinea pig brain membranes; cited from earlier work
[12] = target: T3, δ receptor; design: method as in PMID 25062506; conditions: test compound 1 μM, [3H]DPDPE, rat brain membranes; cited from earlier work

T1 sequence (A0ACM8Q262 1-400): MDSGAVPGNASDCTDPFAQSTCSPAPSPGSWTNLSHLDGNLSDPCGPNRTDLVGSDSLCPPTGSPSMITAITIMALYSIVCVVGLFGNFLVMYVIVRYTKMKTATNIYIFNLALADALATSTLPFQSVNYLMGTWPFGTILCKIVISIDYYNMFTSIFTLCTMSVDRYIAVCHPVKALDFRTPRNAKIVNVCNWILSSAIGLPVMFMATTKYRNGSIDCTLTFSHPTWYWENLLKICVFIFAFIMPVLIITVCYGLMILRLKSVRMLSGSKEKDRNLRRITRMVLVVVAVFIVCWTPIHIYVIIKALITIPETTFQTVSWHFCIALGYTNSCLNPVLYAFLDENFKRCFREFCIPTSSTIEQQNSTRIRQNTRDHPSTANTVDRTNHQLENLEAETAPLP
human serum albumin, sequence (P02768 25-609): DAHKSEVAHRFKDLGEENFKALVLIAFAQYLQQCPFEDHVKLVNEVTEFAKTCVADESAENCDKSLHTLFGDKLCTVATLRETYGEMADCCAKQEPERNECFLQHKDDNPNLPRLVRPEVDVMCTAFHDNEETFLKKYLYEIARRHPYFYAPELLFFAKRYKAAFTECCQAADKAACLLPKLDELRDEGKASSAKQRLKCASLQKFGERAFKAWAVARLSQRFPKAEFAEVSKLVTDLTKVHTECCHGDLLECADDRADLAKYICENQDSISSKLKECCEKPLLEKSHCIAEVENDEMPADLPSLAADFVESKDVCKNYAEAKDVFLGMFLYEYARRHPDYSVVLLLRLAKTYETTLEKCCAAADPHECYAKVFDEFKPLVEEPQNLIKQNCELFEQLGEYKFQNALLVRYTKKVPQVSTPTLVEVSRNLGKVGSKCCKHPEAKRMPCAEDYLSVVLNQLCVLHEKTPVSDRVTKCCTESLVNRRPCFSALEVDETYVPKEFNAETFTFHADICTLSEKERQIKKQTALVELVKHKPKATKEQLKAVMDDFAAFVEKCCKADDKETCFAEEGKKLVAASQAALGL

[3H]-DAMGO [reference compound] showed a Kd ([1]; guinea pig brain membrane preparation) of 0.57 nM.

In the case of `O=C(Cc1ccc(Cl)c(Cl)c1)N1CCN(Cc2ccccc2)[C@@H]2C[C@@H](O)C[C@H](N3CCCC3)[C@H]21` (racemic) [compound 14, 1-[(4aRS,6SR,8SR,8aRS)-4-Benzyl-6-hydroxy-8-(pyrrolidin-1-yl)decahydro-quinoxalin-1-yl]-2-(3,4-dichlorophenyl)ethan-1-one], the inhibition at 1 µM ([1]; read-out: inhibition of the radioligand binding, μ Receptor) is reported as 0%, the fraction unbound [2] is reported as 0.075 and the “selectivity for κ receptor over μ, δ, σ1 and σ2 receptors” value [3] is reported as “high selectivity”. The Ki ([3]; [3H]U-69,593, guinea pig brain membranes, with SEM n = 3, without SEM one experiment) was 599 ± 217 nM, the inhibition at 1 µM [4] was 0% and the inhibition at 1 µM [5] was 11%. For the same molecule, the “compound remaining unchanged (metabolic stability)” value [6] was 92 ± 1%, the Ki [7] was 7900 nM and the logD [8] was 1.72 ± 0.05.

Work on `CC(C)(C)[Si](C)(C)O[C@@H]1C[C@@H]2[C@@H]([C@@H](N3CCCC3)C1)N(C(=O)Cc1ccc(Cl)c(Cl)c1)CCN2Cc1ccccc1` (racemic) [compound 13, 1-[(4aRS,6SR,8SR,8aRS)-4-Benzyl-6-(tert-butyldimethylsilyloxy)-8-(pyrrolidin-1-yl)-decahydroquinoxalin-1-yl]-2-(3,4-dichlorophenyl)ethan-1-one] yielded an inhibition at 1 µM ([3]; read-out: inhibition of the radioligand binding, κ Receptor) of 0%, an inhibition at 1 µM [4] of 7% and a Ki [7] of 487 nM.

For `O=C(Cc1ccc(Cl)c(Cl)c1)N1CCN(Cc2ccccc2)C2CCCC(N3CCCC3)C21` (centres unmarked) [2a], the Ki [9] is listed as 1390 nM, the Ki [10] is listed as 4390 nM and the Ki [11] is listed as 3900 nM. For the same molecule, the “inhibition of the radioligand binding, δ Receptor” value [12] was 39%.

— article PMC11817610, “Stereoselective Synthesis and Biological Evaluation of Perhydroquinoxaline-Based κ Receptor Agonists” (International Journal of Molecular Sciences, 2025)
